Reference: PMC7913927, “Leishmanicidal Activity of Betulin Derivatives in Leishmania amazonensis; Effect on Plasma and Mitochondrial Membrane Potential, and Macrophage Nitric Oxide and Superoxide Production” (Microorganisms, 2021)

Key:
[1] = system: LTB0016 intracellular amastigotes in J774.1 macrophages; test: Macrophage-amastigote model, reference strain; format: cell-based, Leishmania amazonensis
Method: (§1) We used a previously described methodology, with some modifications. Macrophage monolayers, grown in RMPIc medium, for 3 days, were detached from the bottom of the culture chamber, by physical treatment (low temperature and light strokes). Obtained macrophages were seeded in flat-bottom 96-well culture plates, at a density of 2 × 10^5 cells mL^−1 (40,000 macrophages/well), in a final volume of 200 µL. Plates were incubated for 2 h, and the supernatant was discarded to remove non-adhered macrophages. Medium was replaced with stationary-phase promastigotes suspended in 200 µL of RPMIc (2 × 10^6 parasites mL^−1, 400,000 parasites/well), at a macrophage: parasite ratio 1:10 [40]. The plates were incubated for 4 h. Afterwards the medium was replaced with fresh RPMIc and increasing concentrations of compounds or drugs tested were applied, in volumes of 2 µL, according to the different treatment groups. Plates were kept for 72 h, at 37 °C and 5% CO2. The medium was discarded and the wells were washed twice with PBS. Next, a Giemsa staining was performed in situ. It consisted of adding 200 µL of methanol/well, incubating for 5 min, discarding the fixative, and letting it dry at room temperature. Later, the Giemsa solution (10% in PBS w/v, 200 µL/well) was added, incubated for 10 min, and washed with PBS, allowing it to dry. Finally, the bottom of the plates was detached by percussion and the circular bottoms (wells) were fixed to slides with Permount synthetic resin, for later evaluation (Alcazar W., manuscript in preparation). Cell counting was performed with a 100× immersion objective. A minimum of 200 random macrophages were examined. The percentage of infected macrophages (% infection) and the average number of amastigotes present in infected macrophages (amastigotes) were determined. […] The infection rate represents the number of intracellular amastigotes per 100 macrophages evaluated. Additionally, the GI50 for the decrease in the infection rate was calculated. At least three independent experiments were performed. The effect of amphotericin-B (AmB) [Sigma-Aldrich, (St. Louis, MO, USA)] was included as positive control of the assay.

[2] = system: VE2000MM intracellular amastigotes in J774.1 macrophages; test: Macrophage-amastigote model, patient isolate VE2000MM; format: cell-based, Leishmania amazonensis
Method: as §1

[3] = system: VE98MR intracellular amastigotes in J774.1 macrophages; test: Macrophage-amastigote model, patient isolate VE98MR; format: cell-based, Leishmania amazonensis
Method: as §1

[4] = Cytotoxicity (Alamar Blue) in macrophages; format: cell-based, murine; settings: mouse, J774.1 macrophages
Method: In flat-bottom 96-well culture plates, J774.1 macrophages were seeded at a cell density of 5 × 10^4 mL^−1 (10,000 macrophages/well) in 200 µL of RPMIc. After 24 h at 37 °C, 5% CO2, medium was replaced by 180 µL of RPMIc, without phenol red, and increasing concentrations of test compounds in 2-µL volumes. […] At least two independent experiments were performed in duplicate. Based on the inhibition of cell growth caused by the tested compounds, the percentage of growth inhibition compared to untreated cells was calculated. […] Selectivity indices (SI) were calculated, dividing the macrophage CC50 by the parasites GI50 (SI = CC50/GI50).

[5] = system: L. (L.) amazonensis LTB0016 promastigotes; test: Promastigote in vitro susceptibility (Alamar Blue/resazurin), reference strain; format: cell-based, Leishmania amazonensis; settings: Leishmania amazonensis; LTB0016 promastigotes, 72 h; read-out: Promastigote (GI50) mean
Method: The fluorometric method of Alamar Blue® (resazurin) was used. Promastigotes grown in biphasic agar-blood medium, at the exponential phase of growth, were seeded in flat-bottom 96-well culture plates, at a cell density of 1 × 10^6 parasites mL^−1 (200,000 parasites/well), in 180 µL of RPMIc without phenol red. Subsequently, either a sole concentration (50 µM), or increasing concentrations of compounds or drugs were applied, according to each treatment group, in volumes of 2 µL. Plates were kept at 26 °C, in a humid chamber, for 72 h. […] Live parasites are metabolically active and capable of reducing non-fluorescent resazurin (blue) to fluorescent resorufin (red). Fluorescence intensity is directly proportional to the number of viable cells. […] At least two independent experiments were performed in duplicate. The effect of trivalent antimonial [SbIII, potassium antimonyl tartrate trihydrate, Sigma-Aldrich, (St. Louis, MO, USA)] was included as positive control of the assay.

[6] = J774.1 CC50 / intracellular amastigote GI50, Table 2

C[C@@H]1[C@H](O)[C@@H](C)/C=C/C=C/C=C/C=C/C=C/C=C/C=C/[C@H](O[C@@H]2O[C@H](C)[C@@H](O)[C@H](N)[C@@H]2O)C[C@@H]2O[C@](O)(C[C@@H](O)C[C@@H](O)[C@H](O)CC[C@@H](O)C[C@@H](O)CC(=O)O[C@H]1C)C[C@H](O)[C@H]2C(=O)O [AmB, amphotericin-B, reference compound]
SI (CC50/GI50) LTB0016 [1, 6]: >500
Growth (%) Exp1 Infección ([1]; LTB0016, 0.10 µM, 72 h, Exp1, % infected macrophages): 12.89%
Growth (%) Exp1 A/MØ ([1]; LTB0016, 0.10 µM, 72 h, Exp1, amastigotes per infected macrophage): 2.10
Growth (%) Exp1 A/100MØ ([1]; LTB0016, 0.10 µM, 72 h, Exp1, infection index): 27.07
Growth (%) Exp1 %Control ([1]; LTB0016, 0.10 µM, 72 h, Exp1, infection index vs DMSO): 10.32%
Growth (%) Exp2 Infección ([1]; LTB0016, 0.10 µM, 72 h, Exp2, % infected macrophages): 13.33%
Growth (%) Exp2 A/MØ ([1]; LTB0016, 0.10 µM, 72 h, Exp2, amastigotes per infected macrophage): 1.38
Growth (%) Exp2 A/100MØ ([1]; LTB0016, 0.10 µM, 72 h, Exp2, infection index): 18.40
Growth (%) Exp2 %Control ([1]; LTB0016, 0.10 µM, 72 h, Exp2, infection index vs DMSO): 8.65%
Growth (%) Exp3 Infección ([1]; LTB0016, 0.10 µM, 72 h, Exp3, % infected macrophages): 8.08%
Growth (%) Exp3 A/MØ ([1]; LTB0016, 0.10 µM, 72 h, Exp3, amastigotes per infected macrophage): 1.33
Growth (%) Exp3 A/100MØ ([1]; LTB0016, 0.10 µM, 72 h, Exp3, infection index): 10.75
Growth (%) Exp3 %Control ([1]; LTB0016, 0.10 µM, 72 h, Exp3, infection index vs DMSO): 6.05%
Average A/100MØ ([1]; LTB0016, 0.10 µM, 72 h, average of Exp1-3): 18.74
GI50 ([1]; Leishmania amazonensis, J774.1, intracellular amastigotes, 72 h, Table 2, read-out: GI50 (µM) LTB0016): 0.02 µM
SI (CC50/GI50) VE2000MM [2, 6]: >125
GI50 ([2]; Leishmania amazonensis, J774.1, intracellular amastigotes, 72 h, Table 2, read-out: GI50 (µM) VE2000MM): 0.08 µM
Growth (%) Exp1 %Control ([2]; VE2000MM, dose 0.10 µM, Exp1): 7.30%
Growth (%) Exp1 A/100MØ ([2]; VE2000MM, dose 0.10 µM, Exp1): 18.04
Growth (%) Exp1 A/MØ ([2]; VE2000MM, dose 0.10 µM, Exp1): 1.70
Growth (%) Exp1 Infección ([2]; VE2000MM, dose 0.10 µM, Exp1): 10.61%
Growth (%) Exp2 %Control ([2]; VE2000MM, dose 0.10 µM, Exp2): 9.84%
Growth (%) Exp2 A/100MØ ([2]; VE2000MM, dose 0.10 µM, Exp2): 23.78
Growth (%) Exp2 A/MØ ([2]; VE2000MM, dose 0.10 µM, Exp2): 2.17
Growth (%) Exp2 Infección ([2]; VE2000MM, dose 0.10 µM, Exp2): 10.96%
Growth (%) Exp3 %Control ([2]; VE2000MM, dose 0.10 µM, Exp3): 7.62%
Growth (%) Exp3 A/100MØ ([2]; VE2000MM, dose 0.10 µM, Exp3): 17.22
Growth (%) Exp3 A/MØ ([2]; VE2000MM, dose 0.10 µM, Exp3): 2.00
Growth (%) Exp3 Infección ([2]; VE2000MM, dose 0.10 µM, Exp3): 8.61%
Average A/100MØ ([2]; VE2000MM, dose 0.10 µM, average of Exp1-3): 19.68
SI (CC50/GI50) VE98MR [3, 6]: >136
GI50 ([3]; Leishmania amazonensis, J774.1, intracellular amastigotes, 72 h, Table 2, read-out: GI50 (µM) VE98MR): 0.073 µM
Growth (%) Exp1 %Control ([3]; VE98MR, dose 0.10 µM, Exp1): 10.60%
Growth (%) Exp1 A/100MØ ([3]; VE98MR, dose 0.10 µM, Exp1): 17.06
Growth (%) Exp1 A/MØ ([3]; VE98MR, dose 0.10 µM, Exp1): 1.26
Growth (%) Exp1 Infección ([3]; VE98MR, dose 0.10 µM, Exp1): 13.54%
Growth (%) Exp2 %Control ([3]; VE98MR, dose 0.10 µM, Exp2): 2.71%
Growth (%) Exp2 A/100MØ ([3]; VE98MR, dose 0.10 µM, Exp2): 5.60
Growth (%) Exp2 A/MØ ([3]; VE98MR, dose 0.10 µM, Exp2): 1.16
Growth (%) Exp2 Infección ([3]; VE98MR, dose 0.10 µM, Exp2): 4.83%
Growth (%) Exp3 %Control ([3]; VE98MR, dose 0.10 µM, Exp3): 6.21%
Growth (%) Exp3 A/100MØ ([3]; VE98MR, dose 0.10 µM, Exp3): 15.40
Growth (%) Exp3 A/MØ ([3]; VE98MR, dose 0.10 µM, Exp3): 2.00
Growth (%) Exp3 Infección ([3]; VE98MR, dose 0.10 µM, Exp3): 7.70%
Average A/100MØ ([3]; VE98MR, dose 0.10 µM, average of Exp1-3): 12.69
CC50 at 72 h [4]: > 10 µM
GI50 [5]: 0.068 µM
